From patent US11026940B2, “Compositions for the mobilization, homing, expansion and differentiation of stem cells and methods of using the same” (Ampio Pharmaceuticals, Inc., priority 2013, dated 2021)
“And” between values parts separate entries of the source, which are not always exact repeats. Equal entries are not always repeated.

Columns and labels:
Collagen 2A1 = assay: Stem cell chondrogenesis, real time PCR gene expression: Collagen 2A1; assay type: cell-based, human; settings: for Cp Coll / Mean regulation: Collagen 2A1; for Cp Coll / Mean regulation / Mean ΔCp: Day 22; for Mean regulation: vs saline; for Mean ΔCp: Collagen 2A1 vs GAPDH; for regulation, Collagen 2A1 / Mean regulation, Collagen 2A1: fold regulation vs saline; for regulation, Collagen 2A1 / ΔCp, Collagen 2A1 / 2^-ΔΔCp vs saline, Collagen 2A1 / ΔΔCp vs saline, Collagen 2A1: single replicate well; for Mean regulation, Collagen 2A1 / Mean ΔCp, Collagen 2A1: triplicate wells; for ΔCp, Collagen 2A1: human bone marrow MSC, chondrogenic medium + TGF beta 3; for ΔCp, Collagen 2A1 / 2^-ΔΔCp vs saline, Collagen 2A1 / ΔΔCp vs saline, Collagen 2A1 / Mean ΔCp, Collagen 2A1: vs Actin
Method: (§1) • Stem Cells: Bone marrow derived human mesenchymal stem cells: Passage 5 Bone marrow derived human mesenchymal stem cells (HUXMA-01001, Cyagen Biosciences, Sunnyvale Calif.) • Mesenchymal Stem Cell Chondrogenic Differentiation medium (GUXMX-90041, Cyagen Biosciences, Sunnyvale Calif.) • TheraPEAK MSCGM chemically defined Stem cell medium (190632 Lonza) • 1 mM Dexamethasone acetate and mifepristone in absolute ethanol (Sigma) • Saline or 0.9% Sodium chloride for injection ZR Flush (Excelsior Medical, Neptune N.J.) • Sterile filtered 0.6 mM sodium caprylate in saline (sigma) • Sterile filtered 3 mM NAT in saline (sigma); To prepare, heat at 60° C. for 30 minutes then sonicate for 5 minutes. • Sterile filtered 10 mM DADKP in saline • 0.2 μM syringe filters • Hepes buffered saline, Trypsin/EDTA, Trypsin neutralizing solution (Lonza reagent pack) • 182 cm2 tissue culture flasks • pipettes and sterile tips • Tissue culture hood, humidified CO2 incubator, water or bead bath • 24 well tissue culture plates • Qiagen RNeasy plus spin columns (Qiagen 74134) • Qiagen RT2 qPCR primer pairs for Collagen 2A1, MMP13, TIMP1, Aggrecan, GAPDH, and Actin B • Roche Sybr green I master mix and Invitrogen Superscript VILO master mix. • Roche 480 lightcycler
(§2) The following stock drug treatment solutions were prepared in saline for injection and warmed to 37° C. in bath: • 4 μM dexamethasone • 4 μM mifepristone • 3 mM NAT • 0.6 mM caprylate • 80 μM DADKP • Mix of 3 mM NAT, 0.6 mM caprylate, 80 μM DADKP (“Ampion” mix)
(§3) Cyagen Chondrogenic Differentiation medium was prepared by manufacturer protocols but excluding dexamethasone and TGF beta 3 supplements, and warmed to 37° C. in bath.
(§4) The treatment protocol included expanding 5 HUXMA stem cells in 182 cm^2 flasks containing 40 mls TheraPEAK™ MSCGM to 80-90% confluence. Cells were trypsinized from the flasks and a 1.0×10^7 cell suspension of HUXMA stem cells was warmed in Cyagen Chondrogenic Differentiation medium. 20 μl of warmed cell suspension was spotted in the middle of each well of a 24-well tissue culture plate (200,000 cells per spot), and incubated at 37° C. and 5% CO2 for one hour.
(§5) The plates were removed from the incubator and an additional 720 μl chondrogenic medium was added to each well. 250 μl saline, or drug solutions were added to the appropriate wells in triplicate (bringing the final drug dilution to one-quarter of the stock drug treatment solution concentrations). 10 μl of TGF beta 3 solution (supplied by Cyagen) was added to each well, and the plates were returned to the incubator.
(§6) RNA isolation and analysis was conducted for all plates as follows at days 7, 14, and 22 post treatment (with the described medium exchanges). […] Qiagen RNeasy plus lysis buffer (with 2mercaptoethanol) was added to each well and gently shaken for 10 minutes. The lysed cell suspensions from each well were transferred to Qiashredder columns and spun at 14,000 rpm for 2 minutes. RNA isolation proceeded by RNeasy™ plus manufacturer's protocol. RNA was eluted from the Qiagen columns using 25 μl RNase free water.
(§7) cDNA synthesis and real time PCR was conducted as follows. First strand synthesis of cDNA from all samples was performed in 20 μl total volume using 10 μl isolated RNA. All cDNA reactions were then diluted with 30 μl nuclease free water. Real time PCR was then performed using 5 μl diluted cDNA, Roche Syber green master mix, and Qiagen RT^2 gPCR™ primer pairs in 20 μl total reaction volume. Relative gene expression was determined by delta deta Ct method.

MMP13 = assay: Stem cell chondrogenesis, real time PCR gene expression: MMP13; assay type: cell-based, human; settings: for Mean regulation: vs saline; for Mean ΔCp / ΔCp: MMP13 vs GAPDH
Method: as §1, §2, §3, §4, §5, §6, §7

SOX9 = assay: Stem cell chondrogenesis, real time PCR gene expression: SOX9; assay type: cell-based, human; settings: Day 14
Method: The treatment protocol included expanding 5 HUXMA stem cells in 182 cm^2 flasks containing 40 […] to 80-90% confluence. Cells were trypsinized from the flasks and a 1.0×10^7 cell suspension of HUXMA stem cells was warmed in Cyagen Chondrogenic Differentiation medium. 20 μl of warmed cell suspension was spotted in the middle of each well of a 24-well tissue culture plate (200,000 cells per spot), and incubated at 37° C. and 5% CO2 for one hour. […] Medium exchanges were performed every 3-4 days by aspirating the medium from the wells and replacing with fresh chondrogenic medium, diluted stocks, and TGF beta 3, as described above. […] Medium from the wells was removed and saved for further protein analysis. Qiagen RNeasy plus lysis buffer (with 2mercaptoethanol) was added to each well and gently shaken for 10 minutes. The lysed cell suspensions from each well were transferred to Qiashredder columns and spun at 14,000 rpm for 2 minutes. RNA isolation proceeded by RNeasyTM plus manufacturer's protocol. RNA was eluted from the Qiagen columns using 25 μl RNase free water. cDNA synthesis and real time PCR was conducted as follows. First strand synthesis of cDNA from all samples was performed in 20 μl total volume using 10 μl isolated RNA. All cDNA reactions were then diluted with 30 μl nuclease free water. Real time PCR was then performed using 5 μl diluted cDNA, Roche Syber green master mix, and Qiagen RT^2 gPCRTM primer pairs in 20 μl total reaction volume.

Aggrecan = assay: Stem cell chondrogenesis, real time PCR gene expression: Aggrecan; assay type: cell-based, human; settings: for Mean ΔCp / ΔCp: Aggrecan vs Actin; for Mean ΔCp / ΔCp / Cp Agg / Mean regulation: Day 22; for Cp Agg / Mean regulation: Aggrecan; for Mean regulation: vs saline
TIMP1 = assay: Stem cell chondrogenesis, real time PCR gene expression: TIMP1; assay type: cell-based, human; settings: Day 22; for Mean ΔCp / ΔCp: TIMP1 vs Actin
Method: as §1, §2, §3, §4, §5, §6, §7

[1] = system: Bone marrow derived human mesenchymal stem cells; assay: Visual observation of cell aggregates in chondrogenic culture; assay type: cell-based; settings: day seven
[2] = Day 7, vs Actin, single replicate well
[3] = vs Actin, single replicate well

## C[C@@H]1NC(=O)[C@H](CC(=O)O)NC1=O [DADKP, aspartyl-alanyl diketopiperazine]
Collagen 2A1; Table 12
  Cp Coll: 27.41 and 25.44 and 22.94
  Mean regulation: 136.83
  Mean ΔCp: 7.223
Collagen 2A1; Table 16
  Cp Coll: 27.41 and 25.44 and 22.94
  Mean regulation: 136.83
  Mean ΔCp: 7.223
Collagen 2A1; Day 7
  regulation, Collagen 2A1: 1.65 and −2.28 and −1.25
  Mean regulation, Collagen 2A1: −0.62
  ΔCp, Collagen 2A1: 6.01 and 7.92 and 7.05
  2^-ΔΔCp vs saline, Collagen 2A1: 1.651 and 0.4393 and 0.8029
  ΔΔCp vs saline, Collagen 2A1: −0.72 and 1.187 and 0.317
  Mean ΔCp, Collagen 2A1: 6.993
Collagen 2A1; Day 14
  regulation, Collagen 2A1: 1.48 and 2.56 and −1.02
  Mean regulation, Collagen 2A1: 1.01
  ΔCp, Collagen 2A1: 10.49 and 9.7 and 11.09
  2^-ΔΔCp vs saline, Collagen 2A1: 1.4811 and 2.5609 and 0.9772
  ΔΔCp vs saline, Collagen 2A1: −0.57 and −1.36 and 0.033
  Mean ΔCp, Collagen 2A1: 10.43
Collagen 2A1; day 22
  collagen transcription (in words): greatly enhanced
  increase in transcription of Collagen 2a1: 2000 fold
Collagen 2A1; day fourteen, compared with the control in a pellet
  collagen transcription (in words): still elevated
MMP13; Day 7, fold regulation vs saline, single replicate well
  regulation, MMP13: −1.29 and 1.03 and −1.76
MMP13; Day 7, fold regulation vs saline, triplicate wells
  Mean regulation, MMP13: −0.67
MMP13; Day 7, human bone marrow MSC, chondrogenic medium + TGF beta 3, vs Actin, single replicate well
  ΔCp, MMP13: 5 and 4.6 and 5.45
MMP13; [2]
  2^-ΔΔCp vs saline, MMP13: 0.7774 and 1.0257 and 0.5691
  ΔΔCp vs saline, MMP13: 0.363 and −0.04 and 0.813
MMP13; Day 7, vs Actin, triplicate wells
  Mean ΔCp, MMP13: 5.017
MMP13; MMP13, Day 22, Table 12
  Cp, MMP13: 20.34 and 21.41 and 21.25
  Mean regulation: 0.36
MMP13; MMP13, Day 22, Table 16
  2^-ΔΔCp vs saline: 1.1277 and 1.0163 and 0.9352
  Cp, MMP13: 20.34 and 21.41 and 21.25
  Mean regulation: 0.36
MMP13; Day 22, Table 12
  Mean ΔCp: 2.96
  ΔCp: 2.82 and 2.97 and 3.09
MMP13; Day 22, Table 16
  Mean ΔCp: 2.96
  ΔCp: 2.82 and 2.97 and 3.09
SOX9; fold regulation vs saline, single replicate well
  regulation, SOX9: −1.59 and 1.07 and 1.10
SOX9; fold regulation vs saline, triplicate wells
  Mean regulation, SOX9: 0.19
SOX9; human bone marrow MSC, chondrogenic medium + TGF beta 3, vs Actin, single replicate well
  ΔCp, SOX9: 7.85 and 7.08 and 7.04
SOX9; [3]
  2^-ΔΔCp vs saline, SOX9: 0.6285 and 1.0718 and 1.1019
  ΔΔCp vs saline, SOX9: 0.67 and −0.1 and −0.14
SOX9; vs Actin, triplicate wells
  Mean ΔCp, SOX9: 7.323
Aggrecan; Table 12
  Mean ΔCp: 7.28
  ΔCp: 9.06 and 6.83 and 5.95
  Cp Agg: 24.7 and 23.56 and 22.36
  Mean regulation: 10.65
Aggrecan; Table 16
  Mean ΔCp: 7.28
  ΔCp: 9.06 and 6.83 and 5.95
  Cp Agg: 24.7 and 23.56 and 22.36
  Mean regulation: 10.65
Aggrecan; day 22
  increase in transcription of aggrecan: 20 fold
TIMP1; TIMP1, Table 12
  Cp TIMP1: 18.64 and 19.9 and 19.36
TIMP1; TIMP1, Table 16
  2-^ΔΔCp vs saline: 1.7013 and 1.5122 and 1.7613
  Cp TIMP1: 18.64 and 19.9 and 19.36
TIMP1; TIMP1, vs saline, Table 12
  Mean regulation: 1.66
  regulation: 1.70 and 1.51 and 1.76
TIMP1; TIMP1, vs saline, Table 16
  regulation: 1.70 and 1.51 and 1.76
TIMP1; Table 12
  Mean ΔCp: 3.04
  ΔCp: 3 and 3.17 and 2.95
TIMP1; Table 16
  Mean ΔCp: 3.04
  ΔCp: 3 and 3.17 and 2.95
[1]
  form of the culture (discs or pellets): pulled into loose pellets
